Structures are written as SMILES.

For this experiment, the target named is T1, ROCK I (AA 6-553) (Homo sapiens, UniProt Q13464).
T1 construct: ROCK I (AA 6-553)
T1 sequence (Q13464 6-553, species assumed): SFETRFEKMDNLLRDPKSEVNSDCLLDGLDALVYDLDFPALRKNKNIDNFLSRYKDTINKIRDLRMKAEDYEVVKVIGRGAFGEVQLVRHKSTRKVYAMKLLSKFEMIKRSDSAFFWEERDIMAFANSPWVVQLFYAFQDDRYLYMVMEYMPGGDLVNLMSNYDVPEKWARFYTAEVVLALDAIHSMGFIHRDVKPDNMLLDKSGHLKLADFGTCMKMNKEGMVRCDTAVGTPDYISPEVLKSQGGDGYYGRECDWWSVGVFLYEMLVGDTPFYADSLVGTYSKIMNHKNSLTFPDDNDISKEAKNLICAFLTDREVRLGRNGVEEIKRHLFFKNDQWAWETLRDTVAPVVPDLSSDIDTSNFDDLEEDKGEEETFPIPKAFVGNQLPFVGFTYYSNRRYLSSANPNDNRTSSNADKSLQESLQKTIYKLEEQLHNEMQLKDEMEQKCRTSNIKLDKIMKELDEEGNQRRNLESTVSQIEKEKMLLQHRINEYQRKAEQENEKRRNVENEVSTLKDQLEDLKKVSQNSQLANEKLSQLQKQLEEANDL
In words: ROCK inhibition assay, standard coupled enzyme system. The experiment is classed as biochemical. Conditions: 45 nM ROCK I, 45 μM ATP, 200 μM peptide, 30° C. The protocol: Reactions were carried out in a solution containing 100 mM HEPES (pH 7.5), 10 mM MgCl2, 25 mM NaCl, 2 mM DTT and 1.5% DMSO.
A word on the Ki: it is a dissociation constant, usually derived from enzyme kinetics or from competition with a known ligand. High values mean weaker binding, low ones tighter binding. As to `Nc1cc(-c2csc(NC(=O)Cc3ccc(F)cc3F)n2)ccn1` [Compound 16], the Ki is under 100 nM. The result for `O=C(Cc1cccc(O)c1)Nc1cc(-c2ccnc(F)c2)cs1` [Compound 88] reads under 100 nM; that for `Cc1cc(-c2csc(NC(=O)Cc3ccccc3F)n2)ccn1` [Compound 38], 100 to 1000 nM. On to `O=C(Cc1ccc(F)cc1)Nc1nc(-c2ccnc(F)c2)cs1` [Compound 57], for which the Ki lay in the range of 100 to 1000 nM. In the case of `CCNc1cc(-c2csc(NC(=O)Cc3ccccc3Cl)n2)ccn1` [Compound 29], the Ki fell in the range of 100 to 1000 nM. The result for `O=C(Cc1ccccc1F)Nc1nc(-c2ccnc(F)c2)cs1` [Compound 56] reads under 100 nM. The result for `O=C(Cc1ccc(F)cc1F)Nc1cc(-c2ccnc(F)c2)cs1` [Compound 69] reads under 100 nM; that for `CCNc1cc(-c2csc(NC(=O)Cc3cccc(OC)c3)n2)ccn1` [Compound 15], 100 to 1000 nM. Under `O=C(Cc1ccccc1Cl)Nc1nc(-c2ccnc(Cl)c2)cs1` [Compound 10] stands 100 to 1000 nM. In the case of `Cc1cc(-c2csc(NC(=O)Cc3ccccc3)n2)ccn1` [Compound 36], the Ki lay in the range of 100 to 1000 nM. Regarding `COc1cc(-c2csc(NC(=O)Cc3ccc(F)cc3)n2)ccn1` [Compound 4], the Ki was over 1000 nM. The result for `CS(=O)(=O)Nc1ccc(F)c(CC(=O)Nc2cc(-c3ccnc(F)c3)cs2)c1` [Compound 68] reads under 100 nM. On to `CNc1cc(-c2csc(NC(=O)Cc3ccc(F)cc3F)n2)ccn1` [Compound 23], for which the Ki lay in the range of 100 to 1000 nM. In turn, `CCOc1cc(-c2csc(NC(=O)Cc3ccc(F)cc3)n2)ccn1` [Compound 7] had a Ki of over 1000 nM. The result for `O=C(Cc1ccc(F)cc1)Nc1nc(-c2ccnc(Cl)c2)cs1` [Compound 2] reads 100 to 1000 nM; that for `Cc1cc(-c2csc(NC(=O)Cc3cc4c(cc3Cl)OCO4)n2)ccn1` [Compound 32], under 100 nM; that for `Cc1cc(-c2csc(NC(=O)Cc3cccc(NS(=O)(=O)N(C)C)c3)c2)ccn1` [Compound 84], 100 to 1000 nM. Turning to `CN1CCN(CCCOc2ccc(CC(=O)Nc3cc(-c4ccnc(Cl)c4)cs3)c(Cl)c2)CC1` [Compound 98], the Ki is under 100 nM. In turn, `CN1CCN(CCOc2cccc(CC(=O)Nc3cc(-c4ccnc(N)c4)cs3)c2)CC1` [Compound 106] returned a Ki of under 100 nM.

`O=C(Cc1cccc(S(=O)(=O)N2CCOCC2)c1)Nc1cc(-c2ccnc(F)c2)cs1` [Compound 71]: the Ki was 100 to 1000 nM. With `O=C(Cc1ccccc1)Nc1cc(-c2ccnc(F)c2)cs1` [Compound 66], the inhibitory constant (Ki) was under 100 nM. `O=C(Cc1ccc(F)cc1)Nc1cc(-c2ccnc(F)c2)cs1` [Compound 67]: the inhibitory constant (Ki) is under 100 nM. The result for `CS(=O)(=O)Nc1cccc(CC(=O)Nc2nc(-c3ccnc(Cl)c3)cs2)c1` [Compound 51] reads 100 to 1000 nM; that for `Nc1cc(-c2csc(NC(=O)Cc3ccccc3)n2)ccn1` [Compound 41], under 100 nM. Under `CNc1cc(-c2csc(NC(=O)Cc3ccccc3Cl)n2)ccn1` [Compound 28] stands 100 to 1000 nM; under `COc1cccc(CC(=O)Nc2nc(-c3ccnc(NCc4ccccc4)c3)cs2)c1` [Compound 14], over 1000 nM. The result for `Cc1cc(-c2csc(NC(=O)Cc3cccc(O)c3)n2)ccn1` [Compound 37] reads under 100 nM; that for `CN(C)S(=O)(=O)c1cccc(CC(=O)Nc2cc(-c3ccnc(N)c3)cs2)c1` [Compound 79], 100 to 1000 nM; that for `Cc1cc(-c2csc(NC(=O)Cc3cccc(OCCCN4CCN(C)CC4)c3)n2)ccn1` [Compound 39], 100 to 1000 nM. Regarding `O=C(Cc1cccc(O)c1)Nc1nc(-c2ccnc(Cl)c2)cs1` [Compound 48], the Ki is under 100 nM. `Nc1cc(-c2csc(NC(=O)Cc3cccc(OCCCCl)c3)n2)ccn1` [Compound 24] showed a Ki of 100 to 1000 nM. Under `CN(C)c1cc(-c2csc(NC(=O)Cc3cc4c(cc3Cl)OCO4)n2)ccn1` [Compound 12] stands over 1000 nM; under `O=C(Cc1ccc(F)cc1F)Nc1nc(-c2ccnc(NCc3ccccc3)c2)cs1` [Compound 25], 100 to 1000 nM. Under `Cc1cc(-c2csc(NC(=O)Cc3cc(NS(C)(=O)=O)ccc3F)c2)ccn1` [Compound 86] stands under 100 nM. `O=C(Cc1cc2c(cc1Cl)OCO2)Nc1nc(-c2ccnc(NCc3ccccc3)c2)cs1` [Compound 26] came in with an inhibitory constant (Ki) of 100 to 1000 nM.

In turn, `Cc1cc(-c2csc(NC(=O)Cc3ccc(F)cc3)n2)ccn1` [Compound 40] came in with an inhibition constant (Ki) of 100 to 1000 nM. Under `CS(=O)(=O)Nc1cccc(CC(=O)Nc2nc(-c3ccnc(F)c3)cs2)c1` [Compound 59] stands under 100 nM; under `Cc1cc(-c2csc(NC(=O)Cc3cccc(NS(C)(=O)=O)c3)c2)ccn1` [Compound 82], 100 to 1000 nM. As to `CN1CCN(CCCOc2cccc(CC(=O)Nc3nc(-c4ccnc(N)c4)cs3)c2)CC1` [Compound 45], the Ki was under 100 nM. Under `O=C(Cc1ccc(OCCCC2CCNCC2)cc1)Nc1cc(-c2ccnc(Cl)c2)cs1` [Compound 99] stands under 100 nM; under `CN(C)c1cc(-c2csc(NC(=O)Cc3ccccc3Cl)n2)ccn1` [Compound 11], over 1000 nM. Under `O=C(Cc1ccc(OCCN2CCNCC2)cc1Cl)Nc1cc(-c2ccnc(Cl)c2)cs1` [Compound 95] stands under 100 nM; under `NCCC(C(=O)Nc1cc(-c2ccnc(Cl)c2)cs1)c1ccc(F)cc1F` (centres unmarked) [Compound 104], 100 to 1000 nM. The result for `O=C(Cc1ccc(F)cc1F)Nc1nc(-c2ccnc(F)c2)cs1` [Compound 58] reads under 100 nM; that for `CCOc1cc(-c2csc(NC(=O)Cc3ccccc3Cl)n2)ccn1` [Compound 8], over 1000 nM; that for `O=C(Cc1ccccc1)Nc1nc(-c2ccnc(Cl)c2)cs1` [Compound 50], 100 to 1000 nM. Regarding `Cc1cc(-c2csc(NC(=O)Cc3ccccc3F)c2)ccn1` [Compound 81], the Ki lay in the range of 100 to 1000 nM. Under `CCN1CCN(CCCOc2cccc(CC(=O)Nc3nc(-c4ccnc(Cl)c4)cs3)c2)CC1` [Compound 54] stands under 100 nM.

`O=C(Cc1cc2c(cc1Cl)OCO2)Nc1nc(-c2ccnc(Cl)c2)cs1` [Compound 49] displayed a Ki of under 100 nM. Consider `Nc1cc(-c2csc(NC(=O)Cc3ccc(F)cc3)n2)ccn1` [Compound 42], for which the Ki lay in the range of 100 to 1000 nM. `Nc1cc(-c2csc(NC(=O)Cc3ccccc3F)n2)ccn1` [Compound 35] came in with a Ki of under 100 nM. The result for `CCNc1cc(-c2csc(NC(=O)Cc3cc4c(cc3Cl)OCO4)n2)ccn1` [Compound 22] reads 100 to 1000 nM; that for `Cc1cc(-c2csc(NC(=O)Cc3ccccc3Cl)n2)ccn1` [Compound 33], 100 to 1000 nM. The result for `CCNc1cc(-c2csc(NC(=O)Cc3ccc(F)cc3F)n2)ccn1` [Compound 21] reads 100 to 1000 nM; that for `Cc1cc(-c2csc(NC(=O)Cc3ccc(F)cc3F)n2)ccn1` [Compound 30], 100 to 1000 nM. For the molecule `CS(=O)(=O)Nc1ccc(F)c(CC(=O)Nc2cc(-c3ccnc(N)c3)cs2)c1` [Compound 76], the Ki is under 100 nM.

Regarding `CN1CCN(CCCOc2cccc(CC(=O)Nc3nc(-c4ccnc(Cl)c4)cs3)c2)CC1` [Compound 53], the Ki is under 100 nM. As to `CCOc1cc(-c2csc(NC(=O)Cc3cccc(OC)c3)n2)ccn1` [Compound 5], the Ki is over 1000 nM. `Cc1cc(-c2csc(NC(=O)Cc3ccc(NS(C)(=O)=O)cc3)n2)ccn1` [Compound 44] had a Ki of 100 to 1000 nM.

The values above are taken from patent publication US8278306B2 (Vertex Pharmaceuticals Incorporated, priority 2006, dated 2012).
